# Test results published in patent US20140228440A1, “1-AMINO-ALKYLCYCLOHEXANE DERIVATIVES FOR THE TREATMENT OF INFLAMMATORY SKIN DISEASES” (MERZ PHARMA GmbH & CO. KGaA, priority 2008, published 2014).
# Test system: Propionibacterium acnes ATCC 11828
# Assay: MIC and MBC by the agar dilution method
# Type: cell-based
# Procedure: To assess the anti-microbial potency of Neramexane against acne relevant bacterias the minimal inhibitory concentration (MIC) and minimal bactericidal concentration (MBC) against the following bacterias is established: The MICs of the samples are determined using the agar dilution method based on DIN 58940. Petri dishes of 5.5 cm diameter are poured with 2.5 ml of freshly prepared Mueller-Hinton agar (Merck company, Cat-No 1.05437) or Wilkins-Chalgren-Agar (Oxoid company, Cat-No CM643), maintained in liquid form at 50° C., to which the sample dilutions at various concentrations have been added at 50.0 vol.-%. To prepare the starting sample dilutions, a 12.5%, 3.12% suspension of the respective sample solution is prepared with Aqua purificata. From these stock-solutions, further dilutions are prepared with Aqua purificata. All test compounds are adjusted to pH 5.5. For test product no. 1, separate dilutions adjusted to pH 6.0 and pH 7.4 are also prepared. For inoculation, 1 μl of the respective germ suspension is placed on the centre of each agar plate. After drying, inoculated plates are incubated at 36.0±2.0° C. The basis for the length of incubation period is the respective growth control cultivated in parallel. The test microbe suspension is prepared by inoculating a few individual colonies of the respective bacteria into sterile saline solution until a turbidity corresponding to the McFarland standard 1.0 (approximately 10^8 cfu/ml) is reached. After that, the test microbe suspensions are further diluted 1:10 with saline solution and the microbial counts (see Table 21) are determined by the surface spread method using a spiral plater. The agar plates are incubated under the conditions given in Table 22 and subsequently evaluated. The MIC-values as given represent the lowest concentration of the active substance at which there is no macroscopically visible growth. Minimal, barely visible growth or few small individual colonies are evaluated as inhibition. [table] All negative tests of the determination of the minimal bactericial concentration are the basis of verification of remaining germs, the inoculated agar segments are cut and put in Mueller-Hinton-Bouillon (germ 1) or Wilkins-Chalgren-Bouillon (germs 2-4). After an adequate incubation period at 36.0±2.0° C. (as judged from a control without test compound), the tests are checked manually on microbial growth (=turbidity) and the minimal bactericidal concentration is determined. MBC indicates the concentration without marked turbidity. Grown germs are checked for identity to rule out unspecific contaminations. The following results are summarized and tabulated: • a) Results of the Minimal Inhibitory Concentration (MIC)* • b) Results of the Minimal Bactericidal Concentration (MBC) *The MIC is the concentration without macroscopical growth. Scarcely apparent, minimum growth or few single colonies are not considered. The controls must have a respectively good developed growth. There must be no growth on the agar plates for the sterile control. The growth of bacteria is indicated for the duplicate plates by a +(i.e., growth) or a −(i.e., no growth), +− indicates weak growth on both plates or growth on one plate and no growth on the other plate. All bacteria show appropriate growth on the respective control plate not containing any test compound. No influence of the used diluent (Aqua purifacata) was observed. No contamination is observed on the control-plates.
# [1] = final concentration 0.08 %, pH 5.5
# [2] = final concentration 0.08 %, pH 6.0
# [3] = final concentration 0.16 %, pH 5.5
# [4] = final concentration 0.16 %, pH 6.0
# [5] = final concentration 0.16 %, pH 7.4
# [6] = final concentration 0.31 %, pH 5.5
# [7] = final concentration 0.31 %, pH 6.0
# [8] = final concentration 0.31 %, pH 7.4
# [9] = final concentration 0.63 %, pH 5.5
# [10] = final concentration 0.63 %, pH 6.0
# [11] = final concentration 0.63 %, pH 7.4
# [12] = final concentration 1.56 %, pH 5.5
# [13] = final concentration 1.56 %, pH 6.0
# [14] = final concentration 1.56 %, pH 7.4
# [15] = final concentration 2.50 %, pH 5.5
# [16] = final concentration 2.50 %, pH 6.0
# [17] = final concentration 2.50 %, pH 7.4
# [18] = final concentration 3.13 %, pH 5.5
# [19] = final concentration 3.13 %, pH 6.0
# [20] = final concentration 3.13 %, pH 7.4
# [21] = final concentration 6.25 %, pH 5.5
# [22] = final concentration 6.25 %, pH 6.0
# [23] = final concentration 6.25 %, pH 7.4
smiles,measurement,setting,value
CC1(C)CC(C)(C)CC(C)(N)C1.CS(=O)(=O)O [Neramexane mesylate],growth of bacteria on duplicate plates (MIC determination),"final concentration 0.01 %, pH 5.5",+ +
same,growth of bacteria on duplicate plates (MIC determination),"final concentration 0.01 %, pH 6.0",+ +
same,growth of bacteria on duplicate plates (MIC determination),"final concentration 0.01 %, pH 7.4",+ +
same,growth of bacteria on duplicate plates (MIC determination),"final concentration 0.04 %, pH 5.5",+ +
same,growth of bacteria on duplicate plates (MIC determination),"final concentration 0.04 %, pH 6.0",+ +
same,growth of bacteria on duplicate plates (MIC determination),"final concentration 0.04 %, pH 7.4",+ +
same,growth of bacteria (MBC determination),[1],+ +
same,growth of bacteria on duplicate plates (MIC determination),[1],− −
same,growth of bacteria (MBC determination),[2],+ +
same,growth of bacteria on duplicate plates (MIC determination),[2],− −
same,growth of bacteria on duplicate plates (MIC determination),"final concentration 0.08 %, pH 7.4",+ +
same,growth of bacteria (MBC determination),[3],+ +
same,growth of bacteria on duplicate plates (MIC determination),[3],− −
same,growth of bacteria (MBC determination),[4],+ +
same,growth of bacteria on duplicate plates (MIC determination),[4],− −
same,growth of bacteria (MBC determination),[5],+ +
same,growth of bacteria on duplicate plates (MIC determination),[5],− −
same,growth of bacteria (MBC determination),[6],+ +
same,growth of bacteria on duplicate plates (MIC determination),[6],− −
same,growth of bacteria (MBC determination),[7],+ +
same,growth of bacteria on duplicate plates (MIC determination),[7],− −
same,growth of bacteria (MBC determination),[8],+ +
same,growth of bacteria on duplicate plates (MIC determination),[8],− −
same,growth of bacteria (MBC determination),[9],+ +
same,growth of bacteria on duplicate plates (MIC determination),[9],− −
same,growth of bacteria (MBC determination),[10],− −
same,growth of bacteria on duplicate plates (MIC determination),[10],− −
same,growth of bacteria (MBC determination),[11],+ +
same,growth of bacteria on duplicate plates (MIC determination),[11],− −
same,growth of bacteria (MBC determination),[12],− −
same,growth of bacteria on duplicate plates (MIC determination),[12],− −
same,growth of bacteria (MBC determination),[13],− −
same,growth of bacteria on duplicate plates (MIC determination),[13],− −
same,growth of bacteria (MBC determination),[14],− −
same,growth of bacteria on duplicate plates (MIC determination),[14],− −
same,growth of bacteria (MBC determination),[15],− −
same,growth of bacteria on duplicate plates (MIC determination),[15],− −
same,growth of bacteria (MBC determination),[16],− −
same,growth of bacteria on duplicate plates (MIC determination),[16],− −
same,growth of bacteria (MBC determination),[17],− −
same,growth of bacteria on duplicate plates (MIC determination),[17],− −
same,growth of bacteria (MBC determination),[18],− −
same,growth of bacteria on duplicate plates (MIC determination),[18],− −
same,growth of bacteria (MBC determination),[19],− −
same,growth of bacteria on duplicate plates (MIC determination),[19],− −
same,growth of bacteria (MBC determination),[20],− −
same,growth of bacteria on duplicate plates (MIC determination),[20],− −
same,growth of bacteria (MBC determination),[21],− −
same,growth of bacteria on duplicate plates (MIC determination),[21],− −
same,growth of bacteria (MBC determination),[22],− −
same,growth of bacteria on duplicate plates (MIC determination),[22],− −
same,growth of bacteria (MBC determination),[23],− −
same,growth of bacteria on duplicate plates (MIC determination),[23],− −
same,MBC,pH 5.5,1.56%
same,MIC,pH 5.5,0.08%
same,MBC,pH 6.0,0.63%
same,MIC,pH 6.0,0.08%
same,MBC,pH 7.4,1.56%
same,MIC,pH 7.4,0.16%
